Results published in US20090176714A1, “METHOD OF REDUCING THE EFFECTS OF ABeta AND COMPOSITIONS THEREFORE” (priority 2004, published 2009).

Key:
human cortical slices = experiment: Aβ-induced cell death (EthD-1/calcein AM) in human organotypic cortical cultures; format: cell-based
Excerpt: Four patients with intractable epilepsy who had elected to undergo a temporal lobe resection were recruited for this study. […] However, the overlying temporal cortex is normal. The age of the subjects ranged from 20 to 49. Brain tissue was obtained with informed consent from all patients.
Brain tissue was removed in large, intact pieces by electrocautery. Tissue obtained from the temporal cortex was approximately 3 cm×2 cm×1.5-2 cm. Immediately following removal, the tissue was placed in ice-cold Neuregen-I media (Brainbits, Springfield, Ill.), a CO2 independent transport and holding medium, and transported to a tissue culture laboratory. Meninges were removed before cutting the tissue with a scalpel to produce blocks about 0.5-1 cm^3 such that each gyrus was kept as intact as possible and the cortical layers were preserved. As described previously, incisions were made perpendicular to the longitudinal axis of the gyrus and along the white matter (Verwer et al., Exp. Gerontol., 38:167-172 (2003)). A vibratome was used to cut 400 μm thick slices at a plane perpendicular to the longitudinal axis of the gyrus. Thus, all cortical layers and a small amount of white matter were included in a slice. Alternately, small tissue pieces, which were usually obtained from the hippocampus, were cut at 400 μm using a McIlwain tissue chopper. No more than 2 slices were placed on a filter insert with a 30 mm diameter and a 0.4 μm filter pore size (Millipore, Billerica, Mass.) held in 6-well culture plates. For the first 12 hours, slices were kept in 1-1.2 mL Neurobasal media with B-27 supplement, 0.5 mM glutamine, and 1% penicillin/streptomycin (Invitrogen). Subsequently, the media was changed every 2 days using 1 mL of media without antibiotics. Organotypic cultures were maintained in a humidified incubator at 37° C. in 5% O2, 5% CO2, and 90% N for 4 to 28 days.
Cell death and viability was determined on live slices using the fluorescent probes from Molecular Probes' Live/Dead Kit. After a 40 minute incubation in calcein AM (1:400) and ethidium homodimer (1:1000) in phosphate buffered saline, slices were visualized at 200× magnification with an inverted Nikon Diaphot 200 microscope using the Bio-Rad MRC-1024 Laser Scanning Confocal system (Hercules, Calif.). Random images were captured at the emission spectrum of each probe, and Scion Image software (Frederick, Md.) was used to quantify the number of live and dead cells. At least three areas were imaged and used to determine the percent death for each slice. The percent death was calculated as the number of EthD-1 positive cells divided by the total number of EthD-1 and calcein AM positive cells.
β-amyloid1-42 and reverse Aβ (Aβ42-1) were obtained from BACHEM (Torrance, Calif.). These peptides were dissolved in 0.1% NH3OH at 222 μM. For treatments, Aβ or reverse Aβ was aggregated at 50 μM in Neurobasal media with B-27 supplement and 0.5 mM glutamine at 37° C. for 24 hours. Then, the slice culture media was removed, and the slices were treated with 1 mL of 25 μM or 50 μM Aβ, reverse Aβ, or vehicle for 24 hour. Human TTR (Calbiochem) was added to slices together with the Aβ treatment at final concentrations of 0.03, 0.3, and 3 μM TTR. sAPPα was obtained from Sigma (St. Louis, Mo.). Unless otherwise stated, all sAPPα treatments were performed at 1 nM 48 hours prior to the addition of Aβ. The 10 amino acid fragment of the carboxyl-terminal region of sAPPα (592-601 of APP695; SEVKMDAEFR was added according to the same protocol for sAPPα. Because a variable amount of tissue was obtained from each patient, not all treatments were performed on all patients.

hippocampi of mice = experiment: Stereotaxic injection into mouse hippocampus, TTR immunohistochemistry; format: in vivo
Description: Ten week old B6/SJL mice were stereotaxically injected on the right side of their hippocampi with sAPPα, a 10 amino acid fragment, or a scrambled 10-mer to an estimated 1 nM intra-hippocampal concentration. The contralateral sides were injected with artificial cerebrospinal fluid. Each injection consisted of […] of solution delivered over the period of 10 minutes. 48 hours after surgery, the mice were perfused with cold PBS, and their hippocampi were dissected and stored in stabilizing solution for subsequent RNA extraction.
48 hours after injection, mice were perfused with 4% PFA. The brains were harvested, hemisected, and fixed in 4% PFA overnight. They were then sunk in 30% sucrose for 24 hours, frozen, and sectioned. Sections were stained with cresyl violet for morphological verification of the injection site. Other sections were stained with goat anti-TTR, and biotinylated secondary antibody to show TTR protein expression, and ToPro3 as a nuclear marker. A control for nonspecific staining was done with goat IgG.
FIG. 13 is a set of stained micrographs showing stereotactic injection of sAPPα decamer into hippocampus induces expression of TTR in normal mouse brain. […] Injection of 1.5 μl of 15.3 nM solution prepared in artificial cerebral spinal fluid (CSF) was performed to approximate a final concentration of 1 nM in the hippocampus. The contralateral side was injected with only artificial CSF and used as control. […] The DNA binding dye ToPro3 was used to visualize nuclei (blue).

With SEVKMDAEFR the “Protection against Aβ-induced death (percent death)” value (human cortical slices; 1 nM 48 hours prior to 50 μM Aβ, four subjects, FIG. 6A) was “significant protection”, the “Amount of TTR in and around the CA1 hippocampal neurons, immunohistochemistry” value (hippocampi of mice; 1.5 μl of 15.3 nM solution (about 1 nM final) vs contralateral CSF injected hippocampus, FIG. 13) was “increased the amount of TTR” and the “Levels of TTR within treated hippocampi” value (hippocampi of mice; estimated 1 nM intra-hippocampal concentration, 48 hours after injection) was “increased levels of TTR”.
“DAEF [peptide of 4 residues within the 10 residue peptide (residues 597-600)]” was tested, and the “Protection against Aβ toxicity (percent death)” value (human cortical slices; 50 μM Aβ, sample from one subject, FIG. 6A) was “protected against 50 μM Aβ toxicity” and the “TTR after injection into hippocampus” value (hippocampi of mice; preliminary data) was “increased TTR”.
For β-amyloid1-42 [Aβ], the “Number of cells that have lost membrane integrity” value (human cortical slices; 50 μM Aβ) was “dramatic increase” and the Percent death (human cortical slices; 50 μM Aβ vs 50 μM reverse Aβ, FIG. 6A) was “significantly increased”.
